In paper PMC6525029 (ACS synthetic biology, 2019):

T1: αvβ3 integrin, P06756
T1 chain 1: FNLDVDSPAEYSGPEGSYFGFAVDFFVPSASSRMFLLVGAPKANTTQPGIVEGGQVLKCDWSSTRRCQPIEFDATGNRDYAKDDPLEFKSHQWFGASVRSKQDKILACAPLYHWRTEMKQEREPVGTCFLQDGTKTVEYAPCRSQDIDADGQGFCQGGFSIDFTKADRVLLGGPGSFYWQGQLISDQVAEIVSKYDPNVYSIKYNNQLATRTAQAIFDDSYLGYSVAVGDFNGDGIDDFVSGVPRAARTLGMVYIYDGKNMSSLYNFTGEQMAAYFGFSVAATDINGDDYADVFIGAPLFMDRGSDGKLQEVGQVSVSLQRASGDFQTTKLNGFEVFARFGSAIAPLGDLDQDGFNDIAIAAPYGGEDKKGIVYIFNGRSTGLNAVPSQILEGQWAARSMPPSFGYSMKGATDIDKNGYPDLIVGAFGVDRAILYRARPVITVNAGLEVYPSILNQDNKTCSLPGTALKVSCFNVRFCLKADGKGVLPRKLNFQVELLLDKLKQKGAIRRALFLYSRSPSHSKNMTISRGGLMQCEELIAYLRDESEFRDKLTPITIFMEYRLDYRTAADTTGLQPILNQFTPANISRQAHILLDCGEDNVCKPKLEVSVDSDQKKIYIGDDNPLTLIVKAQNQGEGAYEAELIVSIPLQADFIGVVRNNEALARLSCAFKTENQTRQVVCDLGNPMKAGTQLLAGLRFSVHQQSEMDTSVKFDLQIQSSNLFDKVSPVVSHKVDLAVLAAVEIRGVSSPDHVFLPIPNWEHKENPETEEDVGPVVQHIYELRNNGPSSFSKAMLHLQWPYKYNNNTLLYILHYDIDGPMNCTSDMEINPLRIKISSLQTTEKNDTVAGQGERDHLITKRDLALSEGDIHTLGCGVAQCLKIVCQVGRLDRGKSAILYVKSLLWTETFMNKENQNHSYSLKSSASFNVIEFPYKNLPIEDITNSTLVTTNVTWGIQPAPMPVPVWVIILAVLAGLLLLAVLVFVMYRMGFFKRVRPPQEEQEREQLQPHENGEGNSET
T1 chain 2: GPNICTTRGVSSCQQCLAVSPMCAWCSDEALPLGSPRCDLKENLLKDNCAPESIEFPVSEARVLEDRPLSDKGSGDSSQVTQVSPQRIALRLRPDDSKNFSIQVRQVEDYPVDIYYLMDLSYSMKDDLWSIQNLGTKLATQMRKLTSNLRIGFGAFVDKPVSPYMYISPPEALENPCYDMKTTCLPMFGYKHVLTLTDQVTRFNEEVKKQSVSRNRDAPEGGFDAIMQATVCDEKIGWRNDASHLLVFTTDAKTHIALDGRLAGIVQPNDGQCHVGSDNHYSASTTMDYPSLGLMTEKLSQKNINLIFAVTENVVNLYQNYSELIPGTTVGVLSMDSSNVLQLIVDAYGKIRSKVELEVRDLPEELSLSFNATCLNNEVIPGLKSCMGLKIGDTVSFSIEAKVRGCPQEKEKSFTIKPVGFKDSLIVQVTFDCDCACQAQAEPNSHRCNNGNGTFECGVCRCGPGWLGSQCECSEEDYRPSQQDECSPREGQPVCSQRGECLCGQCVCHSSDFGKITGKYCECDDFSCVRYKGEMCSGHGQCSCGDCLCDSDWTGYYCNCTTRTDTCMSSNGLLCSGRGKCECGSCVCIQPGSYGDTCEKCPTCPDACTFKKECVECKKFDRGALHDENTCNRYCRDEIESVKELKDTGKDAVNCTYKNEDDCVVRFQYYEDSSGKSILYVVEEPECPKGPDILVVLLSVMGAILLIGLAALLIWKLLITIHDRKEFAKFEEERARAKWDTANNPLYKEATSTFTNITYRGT


Key:
[1] = biological target: αvβ3 integrin (Homo sapiens, UniProt P05106+P06756); experiment: Fluorescence polarization; format: binding
[2] = biological target: T1, αvβ3 integrin, P06756; experiment: fluorescence polarisation

Row | Molecule | Ki [1] [nM] | binding to the αvβ3 integrin (in words) ([1]; FP competition experiment, Figure 5 legend) | Ki [2] [nM]
1 | CSCC[C@H](NC(=O)[C@H]1CSC[C@H](NC(=O)[C@H](C)NC(=O)[C@H](C)N)C(=O)N[C@@H](Cc2c[nH]cn2)C(=O)N[C@@H](CCCNC(=N)N)C(=O)NCC(=O)N[C@@H](CC(=O)O)C(=O)N2CCC[C@H]2C(=O)N1)C(=O)N1CCC[C@H]1C(=O)N1CCC[C@H]1C(=O)N[C@@H]1CSC[C@@H](C(=O)O)NC(=O)[C@H](CCC(=O)O)NC(=O)CNC(=O)[C@H](CCC(=O)O)NC(=O)[C@H](Cc2c[nH]c3ccccc23)NC(=O)[C@H](Cc2ccc(O)cc2)NC1=O [Pcn2.8(5RGD)] | > 2000 | poor binding | 
2 | CHNHAPSMPPSYWRGDC (modifications not checked) [linear/unmodified Pcn2.8(16RGD) core peptide] |  |  | 18
